Results from PubChem BioAssay AID504820 (Southern Research Specialized Biocontainment Screening …, 2011).
Several values for one entry are separate records, joined by “and”; a condition that tells them apart may be missing. Equal entries are not always repeated. Activity calls are given as the source filed them. No rule for the calls is given here.

Tested on: not listed separately
Assay: inhibition of RSV cytopathic effect in HEp-2, dose response, cell-based, synthesized compounds, set 8 (AID 504820)
Settings: HEp-2 cells, RSV cytopathic effect inhibition; at 50 µM (top of the series)

| SMILES | CPE inhibition |
| --- | --- |
| Cc1ccc(NC(=O)CNS(=O)(=O)c2cccc3cccnc23)c(C)c1 | 4.34% (inactive) |
| O=C([C@@H]1CCCN1S(=O)(=O)c1cccc2cccnc12)N1CCOCC1 | 1.71% (inactive) |
| Cc1ccc(NC(=O)[C@@H]2CCCN2S(=O)(=O)c2cccc3nonc23)c(C)c1 | 6.16% (inactive) |
| Cc1ccc(Cn2c(=O)n(Cc3ccc(C(=O)Nc4nccs4)cc3)c(=O)c3ccccc32)cc1 | 2.96% (inactive) |
| Cc1ccc(NC(=O)[C@@H]2CCCN2S(=O)(=O)c2cccc3cccnc23)cc1 | 25.5% (inactive) |
| Cc1ccc(C(C)C)cc1NC(=O)[C@@H]1CCCN1S(=O)(=O)c1cccc2cccnc12 | 7.9% (inactive) |
| CC(C)(C)NC(=O)[C@@H]1CCCN1S(=O)(=O)c1cccc2cccnc12 | 1.38% (inactive) |
| Cc1ccc(NC(=O)C(C)NS(=O)(=O)c2cccc3cccnc23)c(C)c1 (configuration not stated) | 4.35% (inactive) |
| Cc1ncccc1NC(=O)[C@@H]1CCCN1S(=O)(=O)c1cccc2cccnc12 | 3.67% (inactive) |
| Cc1ccc(NC(=O)CN(C)S(=O)(=O)c2cccc3cccnc23)c(C)c1 | 46% (inactive) |
| Cc1ccc(Cl)c(NC(=O)[C@@H]2CCCN2S(=O)(=O)c2cccc3cccnc23)c1 | 8.49% (inactive) |
| Cc1ccc(NC(=O)C2CCCN2S(=O)(=O)c2ccc3ncccc3c2)c(C)c1 (configuration not stated) | 1.75% (inactive) |
| Cc1cc(NC(=O)[C@@H]2CCCN2S(=O)(=O)c2cccc3cccnc23)n(C(C)(C)C)n1 | 33.2% (inactive) |
| Cc1ccc(F)cc1NC(=O)[C@@H]1CCCN1S(=O)(=O)c1cccc2cccnc12 | 10.8% (inactive) |
| COCCCNC(=O)c1ccc(Cn2c(=O)c3ccc(Br)cc3n(Cc3ccc(C)cc3)c2=O)cc1 | 1.9% (inactive) |
| Cc1ccc(NC(=O)C2CCCN2S(=O)(=O)c2ccccc2)c(C)c1 (configuration not stated) | 1.19% (inactive) |
| Cc1ccc(Cn2c(=O)n(Cc3ccc(C(=O)Nc4cc(C)nc5ccccc45)cc3)c(=O)c3ccccc32)cc1 | 2.83% (inactive) |

| SMILES | CPE inhibition |
| --- | --- |
| COCCCNC(=O)c1ccc(Cn2c(=O)c3ccccc3n(Cc3cc(C)on3)c2=O)cc1 | 6.33% (inactive) |
| Cc1ccc(NC(=O)C2CCCN2S(=O)(=O)c2cccc3cc(C)cnc23)c(C)c1 (configuration not stated) | 11.1% (inactive) |
| Cc1cccc(NC(=O)[C@@H]2CCCN2S(=O)(=O)c2cccc3cccnc23)c1 | 12.8% (inactive) |
| Cc1ccc(NC(=O)C2CCCN2S(C)(=O)=O)c(C)c1 (configuration not stated) | 2.52% (inactive) |
| Cc1cc(C)cc(NC(=O)[C@@H]2CCCN2S(=O)(=O)c2cccc3cccnc23)c1 | 33.1% (inactive) |
| Cc1ccc(C(F)(F)F)cc1NC(=O)[C@@H]1CCCN1S(=O)(=O)c1cccc2cccnc12 | 15% (inactive) |
| O=C(Nc1ccc(Cl)cc1Cl)[C@@H]1CCCN1S(=O)(=O)c1cccc2cccnc12 | 2.1% (inactive) |
| Cc1ccc(NC(=O)[C@@H]2CCCN2S(=O)(=O)c2cccc3cccnc23)c(C)n1 | 4.2% (inactive) |
| Cc1cccc(C)c1NC(=O)[C@@H]1CCCN1S(=O)(=O)c1cccc2cccnc12 | 44.1% (inactive) |
| Cc1ccc(NC(=O)C2CCCN2S(=O)(=O)c2cccc3cnccc23)c(C)c1 (configuration not stated) | 3.25% (inactive) |
| Cc1ccc(NC(=O)[C@H]2CCCN2S(=O)(=O)c2cccc3cccnc23)c(C)c1 | 26.6% (inactive) |
| COc1ccc(C)cc1NC(=O)[C@@H]1CCCN1S(=O)(=O)c1cccc2cccnc12 | 4.82% (inactive) |
| Cc1ccc(NC(=O)C2CCCN2S(=O)(=O)c2cccc3ccccc23)c(C)c1 (configuration not stated) | 1.6% (inactive) |
| Cc1ccc(C(C)(C)C)cc1NC(=O)[C@@H]1CCCN1S(=O)(=O)c1cccc2cccnc12 | 2.81% (inactive) |
| CCCn1c(=O)n(Cc2ccc(C(=O)NCCCOC)cc2)c(=O)c2ccccc21 | 2.28% (inactive) |
| O=C(Nc1ccccc1)[C@@H]1CCCN1S(=O)(=O)c1cccc2cccnc12 | 12.2% (inactive) |
| COCCCNC(=O)c1ccc(Cn2c(=O)c3ccccc3n(C)c2=O)cc1 | 19.2% (inactive) |

Tested on: HEp-2 cells, RSV cytopathic effect inhibition
Assay: as above
Settings: not given

| IC50 | SMILES |
| --- | --- |
| 1150 nM | COCCCNC(=O)c1ccc(Cn2c(=O)c3ccccc3n(Cc3ccc(Br)cc3)c2=O)cc1 |
| 2300 nM | COCCCNC(=O)c1ccc(Cn2c(=O)c3ccccc3n(Cc3ccc(OC)cc3)c2=O)cc1 |
| 1500 nM | COCCCNC(=O)c1ccc(Cn2c(=O)c3ccccc3n(Cc3ccc(C)c(C(F)(F)F)c3)c2=O)cc1 |
| 4800 nM | COc1ccc(C)c(NC(=O)[C@@H]2CCCN2S(=O)(=O)c2cccc3cccnc23)c1 |
| 29000 nM | Cc1ccccc1NC(=O)[C@@H]1CCCN1S(=O)(=O)c1cccc2cccnc12 |
| 2900 nM and 1700 nM | Cc1ccc(C)c(NC(=O)[C@@H]2CCCN2S(=O)(=O)c2cccc3cccnc23)c1 |
| 1250 nM | Cc1ccc(Cn2c(=O)n(Cc3ccc(C(=O)NC(C)(C)C)cc3)c(=O)c3ccccc32)cc1 |
| 2650 nM | Cc1ccc(Cn2c(=O)n(Cc3ccc(C(=O)Nc4ccncc4)cc3)c(=O)c3ccccc32)cc1 |
| 8900 nM | Cc1cccc(NC(=O)[C@@H]2CCCN2S(=O)(=O)c2cccc3cccnc23)c1C |
| 20800 nM | CCc1ccccc1NC(=O)[C@@H]1CCCN1S(=O)(=O)c1cccc2cccnc12 |
| 12600 nM | Cc1ccc(NC(=O)C2CCCN2S(=O)(=O)c2cccc3cccnc23)c(C)c1 (configuration not stated) |
| 550 nM | COCCCNC(=O)c1ccc(Cn2c(=O)c3ccccc3n(Cc3ccc([N+](=O)[O-])cc3)c2=O)cc1 |
| 1400 nM | COCCCNC(=O)c1ccc(Cn2c(=O)c3ccccc3n(Cc3ccc(C(F)(F)F)cc3)c2=O)cc1 |
| 17200 nM | CC(C)c1ccccc1NC(=O)[C@@H]1CCCN1S(=O)(=O)c1cccc2cccnc12 |
| 3000 nM | Cc1ccc(NC(=O)[C@@H]2CCCN2S(=O)(=O)c2cccc3cccnc23)c(C)c1 |
| 2500 nM | Cc1ccc(Cl)cc1NC(=O)[C@@H]1CCCN1S(=O)(=O)c1cccc2cccnc12 |
| 3350 nM | COc1ccccc1CNC(=O)C1CCN(S(=O)(=O)c2cccc3nonc23)CC1 |
| 4700 nM | COCCCNC(=O)c1ccc(Cn2c(=O)c3ccccc3n(Cc3ccc4nonc4c3)c2=O)cc1 |
